The target in series [1] is T1, rat nNOS (Rattus norvegicus, UniProt P29476). Particulars: cited from earlier work.
In series [2] the target is T2, bovine eNOS (Bos taurus, UniProt P29473). The following applies: nNOS over eNOS; cited from earlier work.
The test system of a further series is neuronal damage. On the set-up: method as in PMID 19235180. Particulars: intravenous administration, cerebral palsy rabbit model; cited from earlier work.
On the set-up of series [3]: method as in printed. The following applies: aminothiazole ring nitrogen; stated without measurement, ref not given; cited from earlier work.
Another series has as its target murine iNOS (Mus musculus, UniProt P29477). The series is described as follows: hemoglobin capture assay, iNOS.
Series [4] has as its target T1, rat nNOS. Description: hemoglobin capture assay, nNOS.
The target of series [5] is T2, bovine eNOS. Description: hemoglobin capture assay, eNOS.

Take `NCCN[C@@H]1CNC[C@@H]1Cc1cccc(N)n1` (relative stereo) [Compound 1]: at rat nNOS [1], the nNOS inhibitory potency entry is reported as “nanomolar”. Moreover, the “selectivity over eNOS” value at bovine eNOS [2] is listed as “more than 1000 fold”.
Regarding `Cc1cc(N)nc(C[C@H]2CNC[C@H]2NCCNCc2ccc(Cl)cc2)c1` (relative stereo) [Compound 2], the “protection against neuronal damage” value with neuronal damage is “significant protection against neuronal damage”.
What is called Ki is the dissociation constant of the complex between target and ligand, obtained from inhibition or displacement. `Nc1nc(CC2CNCC2NCCNCc2ccc(Cl)cc2)cs1` (stereo not shown) [Compound 3]: in series [3], the “pKa of ring nitrogen” value is recorded as “≈ 6”. For the same compound, the inhibitory constant (Ki) at murine iNOS turned out to be 50 µM; at rat nNOS [4] it was 10 µM; on bovine eNOS [5] it was 1000 µM.

Values taken from article PMC2707017, “Synthesis and enzymatic evaluation of 2- and 4-aminothiazole-based inhibitors of neuronal nitric oxide synthase” (Beilstein Journal of Organic Chemistry, 2009).
